These results are taken from US20250188092A1, “RIFAMYCIN ANALOGS” (THE REGENTS OF THE UNIVERSITY OF MICHIGAN, priority 2021, published 2025).

In one series the test system is VERO cells (ATCC CRL-81). The experiment in a line: Vero cell toxicity. Particulars: 72 hours exposure. Format: cell-based. Here is the method: Cytotoxicity for a mammalian cell line was determined by exposing VERO cells (ATCC CRL-81) to serial dilutions of test compounds for 72 hours, followed by addition of resazurin and measurement of fluorescence after 4 hours incubation (Choules, et al., Antimnicrob. Agents Chemother. 2019, 63, e02204-02218).

A further series concerns MTB H37Rv ATCC 27294. The experiment in a line: MIC, microplate Alamar Blue assay (MABA). The conditions noted are these: for MIC90: MTB H37Rv ATCC 27294, microplate Alamar Blue assay, lowest concentration giving ≥90% reduction in fluorescence. Type of series: cell-based, Mycobacterium tuberculosis.

Values after ≈ are worked out from the molar mass of the structure shown. Like-named read-outs stand apart in the source and are kept apart here.

By IC50 is commonly meant the concentration that inhibits the measured activity by half. High values mean weaker potency in that assay, low ones greater potency in that assay. Usually MIC90 stands for the lowest concentration that inhibits either 90% of growth or 90% of the strains tested, depending on the study. A high value points to weaker potency. Regarding `CO[C@H]1/C=C/O[C@@]2(C)Oc3c(C)c(O)c4c(=O)c(c5oc6cccc(OCc7ccc(CN8CCOCC8)cc7)c6nc-5c4c3C2=O)NC(=O)/C(C)=C\C=C\[C@H](C)[C@H](O)[C@@H](C)[C@@H](O)[C@@H](C)[C@H](OC(C)=O)[C@@H]1C` [Compound 16d, (7S,9E,11S,12R,13S,14R,15R,16R,17S,18S,19E,21Z)-2,15,17-Trihydroxy-11-methoxy-3,7,12,14,16,18,22-heptamethyl-32-({4-[(morpholin-4-yl)methyl]phenyl}methoxy)-6,23,37-trioxo-8,27,38-trioxa-24,34-diazahexacyclo[23.11.1.1^4,7.0^5,36.0^26,35.0^28,33]octatriaconta-1(36)2,4,9,19,21,25,28,30,32,34-undecaen-13-yl acetate], the IC50 in the series with VERO cells (ATCC CRL-81) (Chlorocebus sabaeus, Vero) is over 10 µM. Moreover, the “MIC90 MABA Rel to RMP” value in the series on MTB H37Rv ATCC 27294 is reported as 0.07. The MIC90 in the series on MTB H37Rv ATCC 27294 (Mycobacterium tuberculosis) came to 3.7 nM. Besides, the “DPX2 Viability @ 6.25 μM” value in the series on DPX2 cells (24 h) is reported as 79%. For the same molecule, the “DPX2 Viability @ 25 μM” value with DPX2 cells (human) is 59%.

For `CO[C@H]1/C=C/O[C@@]2(C)Oc3c(C)c(O)c4c(=O)c(c5oc6cccc(OCc7ccc(CN8CCN(C)CC8)cc7)c6nc-5c4c3C2=O)NC(=O)/C(C)=C\C=C\[C@H](C)[C@H](O)[C@@H](C)[C@@H](O)[C@@H](C)[C@H](OC(C)=O)[C@@H]1C` [Compound 16e, (7S,9E,11S,12R,13S,14R,15R,16R,17S,18S,19E,21Z)-2,15,17-trihydroxy-11-methoxy-3,7,12,14,16,18,22-heptamethyl-32-({4-[(4-methylpiperazin-1-yl)methyl]phenyl}methoxy)-6,23,37-trioxo-8,27,38-trioxa-24,34-diazahexacyclo[23.11.1.1^4,7.0^5,36.0^26,35.0^28,33]octatriaconta-1,3,5(36)9,19,21,25,28,30,32,34-undecaen-13-yl acetate], the IC50 with VERO cells (ATCC CRL-81) (Chlorocebus sabaeus, Vero) was over 10 µM. Further, the “MIC90 MABA Rel to RMP” value against MTB H37Rv ATCC 27294 is 0.16. The molecule also returned an MIC90 in the series on MTB H37Rv ATCC 27294 (Mycobacterium tuberculosis) of 6.4 nM. For the same molecule, the “DPX2 Viability @ 6.25 μM” value in the series with DPX2 cells (24 h) turned out to be 63%. Also, the “DPX2 Viability @ 25 μM” value in the series on DPX2 cells (human) is recorded as 41%.

Consider `CO[C@H]1/C=C/O[C@@]2(C)Oc3c(C)c(O)c4c(=O)c(c5oc6cc(N7CCN(C(=O)C(C)(C)C)CC7)cc(C)c6nc-5c4c3C2=O)NC(=O)/C(C)=C\C=C\[C@H](C)[C@H](O)[C@@H](C)[C@@H](O)[C@@H](C)[C@H](OC(C)=O)[C@@H]1C` [Compound 26f, (7S,9E,11S,12R,13S,14R,15R,16R,17S,18S,19E,21Z)-30-[4-(2,2-Dimethylpropanoyl)piperazin-1-yl]-2,15,17-trihydroxy-11-methoxy-3,7,12,14,16,18,22,32-octamethyl-6,23,37-trioxo-8,27,38-trioxa-24,34-diazahexacyclo[23.11.1.1^4,7.0^5,36.0^26,35.0^28,33]octatriaconta-1(36)2,4,9,19,21,25,28,30,32,34-undecaen-13-yl acetate], for which the “MIC90 MABA Rel to RMP” value in the series with MTB H37Rv ATCC 27294 was 0.17. In the series on MTB H37Rv ATCC 27294 (Mycobacterium tuberculosis), the MIC90 was 4.6 nM. Moreover, the “DPX2 Viability @ 6.25 μM” value in the series with DPX2 cells (24 h) is reported as 111%. Besides, the “DPX2 Viability @ 25 μM” value in the series on DPX2 cells (human) was 102%.

Consider `COC(=O)N1CCN(c2cc(C)c3nc4c5c6c7c(C)c(O)c5c(=O)c(c-4oc3c2)NC(=O)/C(C)=C\C=C\[C@H](C)[C@H](O)[C@@H](C)[C@@H](O)[C@@H](C)[C@H](OC(C)=O)[C@H](C)[C@@H](OC)/C=C/O[C@@](C)(O7)C6=O)CC1` [Compound 26g, Methyl 4-[(7S,9E,11S,12R,13S,14R,15R,16R,17S,18S,19E,21Z)-13-(acetyloxy)-2,15,17-trihydroxy-11-methoxy-3,7,12,14,16,18,22,32-octamethyl-6,23,37-trioxo-8,27,38-trioxa-24,34-diazahexacyclo[23.11.1.1^4,7.0^5,36.0^26,35.0^28,33]octatriaconta-1(36)2,4,9,19,21,25,28,30,32,34-undecaen-30-yl]piperazine-1-carboxylate], for which the “MIC90 MABA Rel to RMP” value in the series with MTB H37Rv ATCC 27294 is on record as 0.18. For the same molecule, in the series on MTB H37Rv ATCC 27294 (Mycobacterium tuberculosis), the MIC90 came to 5 nM (≈ 4.71 ng/mL). In addition, the “DPX2 Viability @ 6.25 μM” value with DPX2 cells (24 h) is given as 111%. The “DPX2 Viability @ 25 μM” value in the series with DPX2 cells (human) is listed as 105%.

Take `CCOC(=O)N1CCN(c2cc(C)c3nc4c5c6c7c(C)c(O)c5c(=O)c(c-4oc3c2)NC(=O)/C(C)=C\C=C\[C@H](C)[C@H](O)[C@@H](C)[C@@H](O)[C@@H](C)[C@H](OC(C)=O)[C@H](C)[C@@H](OC)/C=C/O[C@@](C)(O7)C6=O)CC1` [Compound 26h, Ethyl 4-[(7S,9E,11S,12R,13S,14R,15R,16R,17S,18S,19E,21Z)-13-(acetyloxy)-2,15,17-trihydroxy-11-methoxy-3,7,12,14,16,18,22,32-octamethyl-6,23,37-trioxo-8,27,38-trioxa-24,34-diazahexacyclo[23.11.1.1^4,7.0^5,36.0^26,35.0^28,33]octatriaconta-1(36)2,4,9,19,21,25,28,30,32,34-undecaen-30-yl]piperazine-1-carboxylate]: the “MIC90 MABA Rel to RMP” value in the series with MTB H37Rv ATCC 27294 is given as 0.18. In the series with MTB H37Rv ATCC 27294 (Mycobacterium tuberculosis), the MIC90 was determined as 4.9 nM (≈ 4.68 ng/mL). The “DPX2 Viability @ 6.25 μM” value in the series with DPX2 cells (24 h) is 118%. For the same molecule, the “DPX2 Viability @ 25 μM” value in the series with DPX2 cells (human) was determined as 110%.

Take `CO[C@H]1/C=C/O[C@@]2(C)Oc3c(C)c(O)c4c(=O)c(c5oc6cc(N7CCN(C(=O)OC(C)(C)C)CC7)cc(C)c6nc-5c4c3C2=O)NC(=O)/C(C)=C\C=C\[C@H](C)[C@H](O)[C@@H](C)[C@@H](O)[C@@H](C)[C@H](OC(C)=O)[C@@H]1C` [Compound 26i, tert-Butyl 4-[(7S,9E,11S,12R,13S,14R,15R,16R,17S,18S,19E,21Z)-13-(acetyloxy)-2,15,17-trihydroxy-11-methoxy-3,7,12,14,16,18,22,32-octamethyl-6,23,37-trioxo-8,27,38-trioxa-24,34-diazahexacyclo[23.11.1.1^4,7.0^5,36.0^26,35.0^28,33]octatriaconta-1(36)2,4,9,19,21,25,28,30,32,34-undecaen-30-yl]piperazine-1-carboxylate]: in the series with MTB H37Rv ATCC 27294, the “MIC90 MABA Rel to RMP” value was 0.17. Moreover, the MIC90 against MTB H37Rv ATCC 27294 (Mycobacterium tuberculosis) is 4.7 nM (≈ 4.62 ng/mL). Besides, the “DPX2 Viability @ 6.25 μM” value in the series on DPX2 cells (24 h) is given as 120%. In addition, in the series with DPX2 cells (human), the “DPX2 Viability @ 25 μM” value was 102%.

For the molecule `CO[C@H]1/C=C/O[C@@]2(C)Oc3c(C)c(O)c4c(=O)c(c5oc6cc(N7CCN(CCCCCCO[C@@H]8COc9nc([N+](=O)[O-])cn9C8)CC7)cc(C)c6nc-5c4c3C2=O)NC(=O)/C(C)=C\C=C\[C@H](C)[C@H](O)[C@@H](C)[C@@H](O)[C@@H](C)[C@H](OC(C)=O)[C@@H]1C` [Compound 29e, (7S,9E,11S,12R,13S,14R,15R,16R,17S,18S,19E,21Z)-2,15,17-Trihydroxy-11-methoxy-3,7,12,14,16,18,22,32-octamethyl-30-[4-(6-{[(6S)-2-nitro-5H,6H,7H-imidazo[2,1-b][1,3]oxazin-6-yl]oxy}hexyl)piperazin-1-yl]-6,23,37-trioxo-8,27,38-trioxa-24,34-diazahexacyclo[23.11.1.1^4,7.0^5,36.0^26,35.0^28,33]octatriaconta-1(36)2,4,9,19,21,25,28,30,32,34-undecaen-13-yl acetate], the “MIC90 MABA Rel to RMP” value with MTB H37Rv ATCC 27294 worked out at 0.07. The same molecule registered an MIC90 against MTB H37Rv ATCC 27294 (Mycobacterium tuberculosis) of 2 nM. The “DPX2 Viability @ 6.25 μM” value with DPX2 cells (24 h) is 112%. Also, in the series with DPX2 cells (human), the “DPX2 Viability @ 25 μM” value came out at 99%.

For `CO[C@H]1/C=C/O[C@@]2(C)Oc3c(C)c(O)c4c(=O)c(c5oc6cc(C=O)cc(N7CCN(C)CC7)c6nc-5c4c3C2=O)NC(=O)/C(C)=C\C=C\[C@H](C)[C@H](O)[C@@H](C)[C@@H](O)[C@@H](C)[C@H](OC(C)=O)[C@@H]1C` [Compound 30b, (7S,9E,11S,12R,13S,14R,15R,16R,17S,18S,19E,21Z)-30-Formyl-2,15,17-trihydroxy-11-methoxy-3,7,12,14,16,18,22-heptamethyl-32-(4-methylpiperazin-1-yl)-6,23,37-trioxo-8,27,38-trioxa-24,34-diazahexacyclo[23.11.1.1^4,7.0^5,36.0^26,35.0^28,33]octatriaconta-1(36)2,4,9,19,21,25,28,30,32,34-undecaen-13-yl acetate], in the series with VERO cells (ATCC CRL-81), the IC50 is over 8 µM. In the series on MTB H37Rv ATCC 27294, the “MIC90 MABA Rel to RMP” value was 1.37 and the MIC90 was 37 nM.

In the series with VERO cells (ATCC CRL-81), `CO[C@H]1/C=C/O[C@@]2(C)Oc3c(C)c(O)c4c(=O)c(c5oc6cc(C=O)cc(N7CCN(CC(C)C)CC7)c6nc-5c4c3C2=O)NC(=O)/C(C)=C\C=C\[C@H](C)[C@H](O)[C@@H](C)[C@@H](O)[C@@H](C)[C@H](OC(C)=O)[C@@H]1C` [Compound 30d, (7S,9E,11S,12R,13S,14R,15R,16R,17S,1S,19E,21Z)-30-Formyl-2,15,17-trihydroxy-11-methoxy-3,7,12,14,16,18,22-heptamethyl-32-[4-(2-methylpropyl)piperazin-1-yl]-6,23,37-trioxo-8,27,38-trioxa-24,34-diazahexacyclo[23.11.1.1^4,7.0^5,36.0^26,35.0^28,33]octatriaconta-1(36)2,4,9,19,21,25,28,30,32,34-undecaen-13-yl acetate] showed a half-inhibitory concentration (IC50) of over 8 µM. Also, in the series with MTB H37Rv ATCC 27294, the “MIC90 MABA Rel to RMP” value is under 0.6 and the MIC90 was under 16 nM.

On to `CO[C@H]1/C=C/O[C@@]2(C)Oc3c(C)c(O)c4c(c3C2=O)C2=NC3(CCN(CC(C)C)CC3)NC2=C(NC(=O)/C(C)=C\C=C\[C@H](C)[C@H](O)[C@@H](C)[C@@H](O)[C@@H](C)[C@H](OC(C)=O)[C@@H]1C)C4=O` [RFB, rifabutin, reference compound], for which the “MIC90 MABA Rel to RMP” value with MTB H37Rv ATCC 27294 was determined as 0.09. The MIC90 in the series with MTB H37Rv ATCC 27294 (Mycobacterium tuberculosis) was found to be 2.4 nM (≈ 2.03 ng/mL). In addition, the “DPX2 Viability @ 6.25 μM” value in the series with DPX2 cells (human, 24 h) came out at 117%. In addition, in the series on DPX2 cells (human, 24 h, 25 μM), the “DPX2 Viability @ 25 μM” value is reported as 107%.
